According to paper PMC7316778 (Nature Communications, 2020):
Where “and” joins values, the source holds several entries; their conditions need not be identical. Equal entries are not always repeated. Where two headings read alike, the source gives them in different places.

Key:
Test in all cases: SelectScreen kinase assay
[1] = biological target: MAP4K5 (KHS1) (Homo sapiens, UniProt Q9Y4K4); conditions: 1 h, 1 μM WEL028, 1 h preincubation
Experimental: (§1) Selectivity profiling assays were performed by the Invitrogen SelectScreen™ Services. […] The concentration of ATP was selected to be equal to the KM, unless indicated otherwise.

[2] = biological target: T1, MAPK12 (p38 gamma) (Homo sapiens, UniProt P53778)
T1 sequence (P53778 1-367): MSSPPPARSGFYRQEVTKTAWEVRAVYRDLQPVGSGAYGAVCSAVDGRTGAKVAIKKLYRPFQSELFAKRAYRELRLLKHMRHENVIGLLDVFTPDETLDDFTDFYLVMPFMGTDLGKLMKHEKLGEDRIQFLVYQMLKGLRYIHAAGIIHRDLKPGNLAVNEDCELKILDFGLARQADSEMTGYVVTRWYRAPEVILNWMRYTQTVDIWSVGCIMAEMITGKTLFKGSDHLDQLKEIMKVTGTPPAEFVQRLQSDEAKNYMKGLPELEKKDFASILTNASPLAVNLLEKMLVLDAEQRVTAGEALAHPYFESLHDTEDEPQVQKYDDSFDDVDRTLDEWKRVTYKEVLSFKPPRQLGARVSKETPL
Experimental: as §1

[3] = biological target: FGFR3 (Homo sapiens, UniProt P22607)
Experimental: as §1

[4] = biological target: STK16 (PKL12) (Homo sapiens, UniProt O75716)
Chain of STK16 (PKL12) (O75716 whole entry): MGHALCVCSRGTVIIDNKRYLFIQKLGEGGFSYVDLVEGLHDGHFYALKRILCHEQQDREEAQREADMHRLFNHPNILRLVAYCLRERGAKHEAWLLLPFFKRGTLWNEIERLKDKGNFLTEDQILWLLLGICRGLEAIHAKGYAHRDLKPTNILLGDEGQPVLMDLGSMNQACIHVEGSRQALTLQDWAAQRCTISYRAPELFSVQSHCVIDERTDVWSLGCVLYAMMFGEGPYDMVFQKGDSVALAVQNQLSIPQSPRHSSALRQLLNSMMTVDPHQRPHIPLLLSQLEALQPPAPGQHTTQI
Experimental: as §1

[5] = biological target: LYN B (Homo sapiens, UniProt P07948); conditions: for Inhibition at 1 µM (%): LYN B, ZLYTE, ATP Km app
Experimental: as §1

[6] = biological target: CDK5/p25 (Homo sapiens, UniProt Q00535); conditions: 1 h, 1 μM WEL028, 1 h preincubation
Experimental: as §1

[7] = biological target: CDK7/cyclin H/MNAT1 (Homo sapiens, UniProt P50613)
Chain of CDK7/cyclin H/MNAT1 (P50613 whole entry): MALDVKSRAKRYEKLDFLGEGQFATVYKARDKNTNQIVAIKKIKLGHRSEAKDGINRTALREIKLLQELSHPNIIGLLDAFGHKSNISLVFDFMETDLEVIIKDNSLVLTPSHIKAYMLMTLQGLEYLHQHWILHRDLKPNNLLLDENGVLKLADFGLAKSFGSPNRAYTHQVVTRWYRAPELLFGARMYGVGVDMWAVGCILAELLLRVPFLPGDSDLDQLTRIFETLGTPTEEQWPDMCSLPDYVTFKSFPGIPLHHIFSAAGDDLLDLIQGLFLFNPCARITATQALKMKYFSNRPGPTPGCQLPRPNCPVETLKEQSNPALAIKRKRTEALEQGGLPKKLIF
Chain of CDK7/cyclin H/MNAT1 (P51946 whole entry partner): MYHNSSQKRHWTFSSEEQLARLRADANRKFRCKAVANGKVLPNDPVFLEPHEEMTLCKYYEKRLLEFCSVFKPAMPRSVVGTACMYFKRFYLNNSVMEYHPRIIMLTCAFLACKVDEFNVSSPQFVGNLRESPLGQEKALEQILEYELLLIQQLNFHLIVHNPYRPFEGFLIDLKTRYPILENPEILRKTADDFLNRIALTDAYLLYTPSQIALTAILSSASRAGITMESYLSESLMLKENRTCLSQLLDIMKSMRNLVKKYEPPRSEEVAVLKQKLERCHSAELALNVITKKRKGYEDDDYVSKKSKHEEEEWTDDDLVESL
Chain of CDK7/cyclin H/MNAT1 (P51948 whole entry partner): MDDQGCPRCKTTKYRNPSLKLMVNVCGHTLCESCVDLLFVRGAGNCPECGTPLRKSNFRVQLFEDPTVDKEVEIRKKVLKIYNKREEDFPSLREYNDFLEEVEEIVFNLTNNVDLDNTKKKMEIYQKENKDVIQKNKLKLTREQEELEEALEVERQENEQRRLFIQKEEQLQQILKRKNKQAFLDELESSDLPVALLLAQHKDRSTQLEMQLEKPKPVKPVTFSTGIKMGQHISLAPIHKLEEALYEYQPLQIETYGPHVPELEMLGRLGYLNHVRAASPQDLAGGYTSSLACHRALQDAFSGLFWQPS
Experimental: as §1

[8] = biological target: CLK2 (Homo sapiens, UniProt P49760); conditions: 1 h, 1 μM WEL028, 1 h preincubation
Experimental: as §1

[9] = biological target: CDK9/cyclin K (Homo sapiens, UniProt P50750); conditions: for Inhibition at 1 µM (%): CDK9/cyclin K, LanthaScreen Binding
Chain of CDK9/cyclin K (P50750 whole entry): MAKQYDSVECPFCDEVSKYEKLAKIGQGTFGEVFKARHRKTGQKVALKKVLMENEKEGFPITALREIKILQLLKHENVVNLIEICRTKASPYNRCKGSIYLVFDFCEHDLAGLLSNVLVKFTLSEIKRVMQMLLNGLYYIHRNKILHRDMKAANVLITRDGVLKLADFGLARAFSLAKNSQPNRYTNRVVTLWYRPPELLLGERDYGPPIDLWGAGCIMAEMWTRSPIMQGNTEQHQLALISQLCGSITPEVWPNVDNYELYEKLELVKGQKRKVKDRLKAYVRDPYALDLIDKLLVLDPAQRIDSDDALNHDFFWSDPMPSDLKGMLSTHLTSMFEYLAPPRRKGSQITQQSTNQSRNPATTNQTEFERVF
Chain of CDK9/cyclin K (O75909 whole entry partner): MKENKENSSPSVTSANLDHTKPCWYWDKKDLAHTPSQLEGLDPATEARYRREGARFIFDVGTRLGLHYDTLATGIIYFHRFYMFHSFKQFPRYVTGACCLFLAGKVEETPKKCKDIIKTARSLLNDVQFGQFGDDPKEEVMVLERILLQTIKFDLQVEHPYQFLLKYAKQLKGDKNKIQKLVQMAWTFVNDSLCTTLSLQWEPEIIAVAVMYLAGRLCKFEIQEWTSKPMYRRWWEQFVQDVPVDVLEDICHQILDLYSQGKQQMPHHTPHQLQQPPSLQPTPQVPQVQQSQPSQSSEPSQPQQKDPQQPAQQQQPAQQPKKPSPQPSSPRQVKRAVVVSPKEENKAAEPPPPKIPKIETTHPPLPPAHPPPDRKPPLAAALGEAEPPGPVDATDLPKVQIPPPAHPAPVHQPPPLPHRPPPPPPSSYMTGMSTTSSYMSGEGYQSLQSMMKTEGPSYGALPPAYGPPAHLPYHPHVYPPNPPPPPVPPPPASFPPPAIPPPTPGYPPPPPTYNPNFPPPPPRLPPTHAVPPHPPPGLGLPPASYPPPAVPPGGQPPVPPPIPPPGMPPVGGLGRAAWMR
Experimental: as §1

[10] = biological target: PIP5K1B (Homo sapiens, UniProt O14986); conditions: for Inhibition at 1 µM (%): PIP5K1B, Adapta, ATP 10
Chain of PIP5K1B (O14986 whole entry): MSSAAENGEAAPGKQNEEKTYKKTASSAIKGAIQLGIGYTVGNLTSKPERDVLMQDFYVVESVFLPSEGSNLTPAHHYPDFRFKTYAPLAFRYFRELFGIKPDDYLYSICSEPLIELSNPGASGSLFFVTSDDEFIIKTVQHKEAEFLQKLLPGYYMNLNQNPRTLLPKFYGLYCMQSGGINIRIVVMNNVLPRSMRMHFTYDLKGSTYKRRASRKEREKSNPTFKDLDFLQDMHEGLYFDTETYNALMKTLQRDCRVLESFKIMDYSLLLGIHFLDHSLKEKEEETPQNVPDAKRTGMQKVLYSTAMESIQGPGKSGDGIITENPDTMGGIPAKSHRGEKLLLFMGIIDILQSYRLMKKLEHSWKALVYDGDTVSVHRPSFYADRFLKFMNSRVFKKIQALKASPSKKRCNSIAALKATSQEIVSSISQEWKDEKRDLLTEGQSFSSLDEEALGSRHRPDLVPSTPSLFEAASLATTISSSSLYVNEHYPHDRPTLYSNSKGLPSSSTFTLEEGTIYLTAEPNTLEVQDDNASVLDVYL
Experimental: as §1

[11] = biological target: T2, SGK (SGK1) (Homo sapiens, UniProt O00141)
T2 sequence (O00141 1-431): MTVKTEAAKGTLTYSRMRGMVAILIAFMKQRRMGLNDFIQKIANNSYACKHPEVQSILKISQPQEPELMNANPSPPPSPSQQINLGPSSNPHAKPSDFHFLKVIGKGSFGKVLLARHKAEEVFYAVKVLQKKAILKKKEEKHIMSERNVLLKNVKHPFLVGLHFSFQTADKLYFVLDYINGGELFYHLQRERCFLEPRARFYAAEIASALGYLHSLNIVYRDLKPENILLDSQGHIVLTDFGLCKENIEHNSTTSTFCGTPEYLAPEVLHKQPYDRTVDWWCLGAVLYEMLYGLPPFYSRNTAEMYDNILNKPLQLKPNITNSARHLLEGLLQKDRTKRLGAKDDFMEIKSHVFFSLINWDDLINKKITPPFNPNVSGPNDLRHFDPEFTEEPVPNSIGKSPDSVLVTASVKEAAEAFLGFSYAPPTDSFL
Experimental: as §1

[12] = biological target: CAMKK1 (CAMKKA) (Homo sapiens, UniProt Q8N5S9)
Chain of CAMKK1 (CAMKKA) (Q8N5S9 whole entry): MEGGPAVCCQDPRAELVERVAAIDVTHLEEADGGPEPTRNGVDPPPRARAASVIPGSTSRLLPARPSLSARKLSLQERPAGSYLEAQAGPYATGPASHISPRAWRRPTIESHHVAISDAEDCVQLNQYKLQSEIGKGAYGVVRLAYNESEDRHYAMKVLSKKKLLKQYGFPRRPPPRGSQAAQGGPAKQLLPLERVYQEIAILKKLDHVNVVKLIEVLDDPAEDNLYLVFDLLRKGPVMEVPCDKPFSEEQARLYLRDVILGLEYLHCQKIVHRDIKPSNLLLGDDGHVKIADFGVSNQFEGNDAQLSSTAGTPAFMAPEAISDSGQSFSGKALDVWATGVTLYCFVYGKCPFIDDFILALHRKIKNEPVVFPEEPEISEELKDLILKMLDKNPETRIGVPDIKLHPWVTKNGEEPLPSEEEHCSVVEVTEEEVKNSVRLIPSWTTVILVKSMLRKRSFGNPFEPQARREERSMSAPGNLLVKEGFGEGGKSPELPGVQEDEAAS
Experimental: as §1

[13] = biological target: DDR2 (Homo sapiens, UniProt Q16832)
Experimental: as §1

[14] = biological target: STK24 (MST3) (Homo sapiens, UniProt Q9Y6E0)
Chain of STK24 (MST3) (Q9Y6E0 whole entry): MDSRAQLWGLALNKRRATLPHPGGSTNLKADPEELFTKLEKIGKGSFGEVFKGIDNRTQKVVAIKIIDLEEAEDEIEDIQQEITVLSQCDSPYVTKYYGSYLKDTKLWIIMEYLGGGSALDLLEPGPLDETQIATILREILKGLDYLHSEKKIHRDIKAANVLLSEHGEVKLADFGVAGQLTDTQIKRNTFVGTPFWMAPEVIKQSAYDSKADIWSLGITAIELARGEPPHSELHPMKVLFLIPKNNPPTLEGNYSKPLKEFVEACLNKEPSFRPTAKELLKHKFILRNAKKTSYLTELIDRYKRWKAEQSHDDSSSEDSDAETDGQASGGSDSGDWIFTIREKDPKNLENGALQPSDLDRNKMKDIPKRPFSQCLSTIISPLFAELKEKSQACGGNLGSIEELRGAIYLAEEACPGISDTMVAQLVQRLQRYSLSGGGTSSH
Experimental: as §1

[15] = biological target: T3, ACVR1B (ALK4) (Homo sapiens, UniProt P36896); conditions: for Inhibition at 1 µM (%): ACVR1B (ALK4), ZLYTE, ATP Km app
T3 sequence (P36896 24-505): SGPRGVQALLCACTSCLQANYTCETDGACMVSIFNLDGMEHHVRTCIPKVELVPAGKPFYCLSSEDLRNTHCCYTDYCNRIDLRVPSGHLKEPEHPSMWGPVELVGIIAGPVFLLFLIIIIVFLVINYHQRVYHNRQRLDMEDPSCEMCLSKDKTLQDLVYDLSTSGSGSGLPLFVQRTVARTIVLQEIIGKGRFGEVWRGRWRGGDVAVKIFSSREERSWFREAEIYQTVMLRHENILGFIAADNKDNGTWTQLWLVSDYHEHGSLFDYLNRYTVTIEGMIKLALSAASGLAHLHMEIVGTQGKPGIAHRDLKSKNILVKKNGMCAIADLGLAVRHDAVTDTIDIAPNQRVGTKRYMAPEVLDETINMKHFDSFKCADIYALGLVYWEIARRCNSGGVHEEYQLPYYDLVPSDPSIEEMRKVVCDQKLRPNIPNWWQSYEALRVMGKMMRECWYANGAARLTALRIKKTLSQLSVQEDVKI
Experimental: as §1

[16] = biological target: SRPK2 (Homo sapiens, UniProt P78362); conditions: 1 h, 1 μM WEL028, 1 h preincubation
Experimental: as §1

[17] = biological target: ABL2 (Arg) (Homo sapiens, UniProt P42684); conditions: for Inhibition at 1 µM (%): ABL2 (Arg), ZLYTE, ATP Km app
Chain of ABL2 (Arg) (P42684 whole entry): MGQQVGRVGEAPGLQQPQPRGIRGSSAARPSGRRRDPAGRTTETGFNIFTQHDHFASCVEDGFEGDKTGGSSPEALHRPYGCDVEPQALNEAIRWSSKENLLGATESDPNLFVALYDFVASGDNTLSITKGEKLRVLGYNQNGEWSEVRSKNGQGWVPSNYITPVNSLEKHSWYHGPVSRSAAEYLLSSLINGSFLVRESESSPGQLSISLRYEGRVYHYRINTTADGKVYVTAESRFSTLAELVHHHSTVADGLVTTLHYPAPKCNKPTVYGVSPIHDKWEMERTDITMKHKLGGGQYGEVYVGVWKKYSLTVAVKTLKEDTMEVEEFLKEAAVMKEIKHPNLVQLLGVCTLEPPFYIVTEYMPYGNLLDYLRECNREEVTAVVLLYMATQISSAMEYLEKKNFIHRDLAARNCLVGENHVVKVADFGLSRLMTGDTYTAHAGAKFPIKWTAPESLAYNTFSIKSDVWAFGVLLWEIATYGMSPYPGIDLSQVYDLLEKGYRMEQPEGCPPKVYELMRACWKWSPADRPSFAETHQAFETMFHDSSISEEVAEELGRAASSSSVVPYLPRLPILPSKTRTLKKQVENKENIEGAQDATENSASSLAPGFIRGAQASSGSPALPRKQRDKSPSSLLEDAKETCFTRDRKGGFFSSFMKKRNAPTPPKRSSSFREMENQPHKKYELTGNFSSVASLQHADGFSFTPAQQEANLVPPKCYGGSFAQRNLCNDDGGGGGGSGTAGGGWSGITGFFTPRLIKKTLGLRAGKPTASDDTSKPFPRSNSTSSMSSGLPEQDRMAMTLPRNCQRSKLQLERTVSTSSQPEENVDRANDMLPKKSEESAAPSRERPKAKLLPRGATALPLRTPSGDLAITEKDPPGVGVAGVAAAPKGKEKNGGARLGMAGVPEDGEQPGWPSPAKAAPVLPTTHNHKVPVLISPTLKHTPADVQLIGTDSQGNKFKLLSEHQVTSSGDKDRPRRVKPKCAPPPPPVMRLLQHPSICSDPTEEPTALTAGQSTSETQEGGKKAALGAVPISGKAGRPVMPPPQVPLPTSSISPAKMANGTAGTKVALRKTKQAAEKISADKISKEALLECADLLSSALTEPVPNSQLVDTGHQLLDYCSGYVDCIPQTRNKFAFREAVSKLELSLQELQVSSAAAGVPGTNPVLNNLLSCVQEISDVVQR
Experimental: as §1

[18] = biological target: CDK16 (PCTK1)/cyclin Y (Homo sapiens, UniProt Q00536)
Experimental: as §1

[19] = 1 h, 1 μM WEL028, 1 h preincubation
[20] = 1 µM, ZLYTE, ATP Km app, listed as WEL028, 1 µM
[21] = read-out: Inhibition at 1 µM (%), 1 µM, ZLYTE, ATP Km app

In the case of `C#CCOc1ccc(Nc2ncc(Cl)c(Nc3ccccc3NC(=O)C=C)n2)c(OC)c1` [Compound 6], the inhibition at 1 µM [1] is reported as -5%, the inhibition at 1 µM [2, 19] is reported as 10% and the “Inhibition at 1 µM (%)” value ([2]; MAPK12 (p38 gamma), 1 µM, ZLYTE, ATP Km app, listed as WEL028, 1 µM) is reported as 7%. It also gave an inhibition at 1 µM ([2]; read-out: Inhibition at 1 µM (%), MAPK12 (p38 gamma), 1 µM, ZLYTE, ATP Km app) of 12%, an inhibition at 1 µM [3, 19] of 6% and an inhibition at 1 µM ([3]; read-out: Inhibition at 1 µM (%), FGFR3, 1 µM, ZLYTE, ATP Km app) of 7%. For the same compound, the “Inhibition at 1 µM (%)” value ([4]; 1 µM, LanthaScreen Binding, listed as WEL028, 1 µM) was 29%, the inhibition at 1 µM [4, 19] was 32% and the inhibition at 1 µM ([4]; read-out: Inhibition at 1 µM (%), 1 µM, LanthaScreen Binding) was 35%. For the same compound, the inhibition at 1 µM [5, 19] was 1%, the “Inhibition at 1 µM (%)” value [5] was 3% and the “Inhibition at 1 µM (%)” value ([5]; listed as WEL028, 1 µM) was 0%. The inhibition at 1 µM [6] was 2%, the inhibition at 1 µM [7, 19] was 6% and the “Inhibition at 1 µM (%)” value ([7]; CDK7/cyclin H/MNAT1, 1 µM, Adapta, ATP Km app, listed as WEL028, 1 µM) was 2% and 11%. For the same compound, the inhibition at 1 µM [8] was 1%, the inhibition at 1 µM [9, 19] was 5% and the “Inhibition at 1 µM (%)” value [9] was 2%. The “Inhibition at 1 µM (%)” value ([9]; listed as WEL028, 1 µM) was 7%, the inhibition at 1 µM [10, 19] was -11% and the “Inhibition at 1 µM (%)” value [10] was -13%. The “Inhibition at 1 µM (%)” value ([10]; listed as WEL028, 1 µM) was -9%, the “Inhibition at 1 µM (%)” value [11, 20] was 9% and the inhibition at 1 µM [11, 19] was 10%. For the same compound, the inhibition at 1 µM [11, 21] was 10%, the inhibition at 1 µM [12, 19] was 22% and the “Inhibition at 1 µM (%)” value ([12]; CAMKK1 (CAMKKA), 1 µM, LanthaScreen Binding, listed as WEL028, 1 µM) was 24%. For the same compound, the inhibition at 1 µM ([12]; read-out: Inhibition at 1 µM (%), CAMKK1 (CAMKKA), 1 µM, LanthaScreen Binding) was 20%, the inhibition at 1 µM [13, 19] was 3% and the inhibition at 1 µM ([13]; read-out: Inhibition at 1 µM (%), DDR2, 1 µM, LanthaScreen Binding) was 2%. For the same compound, the “Inhibition (%)” value ([14]; 1 μM WEL028, 1 h preincubation) was 12%, the “Inhibition at 1 µM (%)” value [14, 20] was 15% and the inhibition at 1 µM [14, 21] was 9%. For the same compound, the inhibition at 1 µM [15, 19] was 1%, the “Inhibition at 1 µM (%)” value [15] was -2% and the “Inhibition at 1 µM (%)” value ([15]; listed as WEL028, 1 µM) was 5%. The inhibition at 1 µM [16] was -1%, the inhibition at 1 µM [17, 19] was -5% and the “Inhibition at 1 µM (%)” value [17] was -2%. For the same compound, the “Inhibition at 1 µM (%)” value ([17]; listed as WEL028, 1 µM) was -9%, the inhibition at 1 µM [18, 19] was 0% and the “Inhibition at 1 µM (%)” value ([18]; CDK16 (PCTK1)/cyclin Y, 1 µM, LanthaScreen Binding, listed as WEL028, 1 µM) was -1%.
